{"source": "paper PMC9387934", "about": "“Randomized single oral dose phase 1 study of safety, tolerability, and pharmacokinetics of Iminosugar UV-4 Hydrochloride (UV-4B) in healthy subjects” (PLoS Neglected Tropical Diseases, 2022)", "key": {"[1]": {"assay": "14-day GLP toxicology study in mice (UV4-COV-036)", "settings": "Crl:CD1(ICR), mouse, in vivo, 300 mg/kg/day, read-out: Daily exposure at NOAEL [3 x AUC(0-8)]", "experimental": "Fourteen-day studies were conducted in mice and dogs. […]\nThe inverted AST/ALT ratio […]\nand lymphocyte depletion were reversible. Thymus weight decrease in females was reversible but thymus weight decreases in males were not. However, because the apparent […]\nmicroscopic thymus findings, thymus weight differences at the recovery necropsy were considered not toxicologically important. In mice at 25 mg/kg/dose (75 mg/kg/day) there were decreased thymus weights (males), follicular epithelium vacuolation in the thyroid, and lymphoid depletion of the thymus (males). All findings were reversible but a NOEL was not present at this dose level. At the no NOAEL of 300 mg/kg/day, there were clinical hematology, chemistry, and anatomic pathology findings similar to those observed in the dogs. All findings were reversible.\nBased on these observations, the NOAEL for UV-4B following 14 days of TID administration in mice is considered to be 300 mg/kg/day. This dose level corresponded to Day 14 mean Cmax […]\nng•h/mL, respectively. Daily exposure at NOAEL [calculated as 3 x AUC(0-8)] is estimated at 163,305 ng•h/mL. In dogs, the NOAEL following 14 days of TID administration is considered to be 30 mg/kg/day. At the end of the dosing phase, this dose level corresponded to average […]\nDaily exposure [calculated as 3 x AUC(0-8)] is estimated at 32,820 ng•h/mL.\nThis material is the property of the Unither Virology. […]"}, "[2]": {"parameters": "method as in Investigator’s Brochure (IB)", "settings": "mice, up to 250 mg/kg TID (750 mg/kg/day); ref Investigator’s Brochure (IB); cited from earlier work"}, "[3]": {"parameters": "method as in Investigator’s Brochure (IB)", "settings": "mice, 1000 mg/kg single dose; ref Investigator’s Brochure (IB); cited from earlier work"}, "[4]": {"parameters": "method as in Investigator’s Brochure (IB)", "settings": "50 mg/kg/day for 13 days; ref Investigator’s Brochure (IB); cited from earlier work"}, "[5]": {"settings": "rat, cited from earlier work"}, "[6]": {"settings": "cited from earlier work"}, "[7]": {"settings": "mice, Day 14, at NOAEL 300 mg/kg/day, ref Investigator’s Brochure (IB)"}, "[8]": {"settings": "mouse, 25 TID mg/kg, Day 28 (Recovery)"}, "[9]": {"settings": "mouse, 25 TID mg/kg, dosing phase (Day 14)"}, "[10]": {"settings": "mouse, 100 TID mg/kg (NOAEL), Day 28 (Recovery)"}}, "note": "Structures can show the parent of a compound that is named as a salt. Where two headings read alike, the source gives them in different places.", "data": [{"smiles": "COCCCCCCCCCN1C[C@H](O)[C@@H](O)[C@H](O)[C@H]1CO", "note": "[UV-4B, N-(9’-methoxynonyl)-1-deoxynojirimycin hydrochloride]", "values": [{"measurement": "AUC(0-t)", "setting": "[1]", "value": 163, "unit": "µg·h/mL"}, {"measurement": "CNS assessments", "setting": "[2]", "value": "no adverse treatment-related effects"}, {"measurement": "Respiratory function", "setting": "[3]", "value": "no adverse treatment-related effects"}, {"measurement": "Finding in rabbit offspring", "setting": "[4]", "value": "skeletal and visceral malformations"}, {"measurement": "Dose with increased WBC and lymphocyte count", "setting": "[5]; printed men", "value": "≥ 10 mg/kg/dose, TID"}, {"measurement": "Dose with swollen paws/legs and perioral appearance and red skin, paws, and/or feet", "setting": "[5]; women [sic]", "value": "< 60 mg/kg/dose, TID"}, {"measurement": "Cardiovascular Effects", "setting": "[5]", "value": "none observed"}, {"measurement": "Dose with decreased PLT and reticulocyte count", "setting": "[5]", "value": "≥ 10 mg/kg/dose, TID"}, {"measurement": "Dose with erosion/ulcer, inflammation, decreased mucus in stomach, hyperplasia/hyperkeratosis", "setting": "[5]", "value": "≥ 25 mg/kg/dose, TID"}, {"measurement": "Dose with extramedullary hematopoiesis decreased in spleen and liver", "setting": "[5]", "value": "60 mg/kg/dose, TID"}, {"measurement": "Dose with increased AST and ALT", "setting": "[5]", "value": "≥ 10 mg/kg/dose, TID"}, {"measurement": "NOAEL", "setting": "[6]; mice, 14 days of TID administration, ref Investigator’s Brochure (IB)", "value": 300, "unit": "mg/kg/day"}, {"measurement": "No observed effect level (NOEL)", "setting": "[6]; mice, 14 days, a NOEL was not present at this dose level, ref Investigator’s Brochure (IB)", "value": "< 25", "unit": "mg/kg/dose"}, {"measurement": "AUC(0-8)", "setting": "[6]; [7]", "value": "54,435 ng•h/mL"}, {"measurement": "Mean Cmax", "setting": "[6]; [7]", "value": "32,617 ng/mL"}, {"measurement": "Decreased thymus weight (M)", "setting": "[6]; [8]", "value": "−"}, {"measurement": "Follicular epithelium vacuolation in thyroid", "setting": "[6]; [8]", "value": "−"}, {"measurement": "Lymphoid depletion of the thymus (M)", "setting": "[6]; [8]", "value": "−"}, {"measurement": "Decreased thymus weight (M)", "setting": "[6]; [9]", "value": "↓ (M)"}, {"measurement": "Lymphoid depletion of the thymus (M)", "setting": "[6]; [9]", "value": "P (M)"}, {"measurement": "Decrease in red cell mass (RBC Count, HGB, and HCT)", "setting": "[6]; [10]", "value": "−"}, {"measurement": "Decrease in thymus weight", "setting": "[6]; [10]", "value": "−"}, {"measurement": "Follicular epithelium vacuolation in thyroid", "setting": "[6]; [10]", "value": "−"}, {"measurement": "Lymphoid depletion in thymus", "setting": "[6]; [10]", "value": "−"}, {"measurement": "Neutrophilic infiltration and erosion/ulcer rectum (F)", "setting": "[6]; [10]", "value": "−"}]}]}
